Measurements reported in ChEMBL document CHEMBL1124625, “Flavones. 2. Synthesis and structure-activity relationship of flavodilol and its analogues, a novel class of antihypertensive agents with catecholamine depleting properties” (J Med Chem, 1989).

Assays:
Rattus norvegicus [1] = experiment: Systolic blood pressure (SBP) in anesthetized spontaneously hypertensive rats(SHR) before administration of 35 mg/kg dose perorally; format: functional; design: unit not given here; settings: route oral
Rattus norvegicus [2] = experiment: Systolic blood pressure (SBP) in anesthetized spontaneously hypertensive rats(SHR) at 7.5 hours after administration of 35 mg/kg dose perorally; format: functional; settings: route oral
Rattus norvegicus [3] = experiment: Systolic blood pressure (SBP) in anesthetized spontaneously hypertensive rats(SHR) before administration of 150 mg/kg dose perorally; format: functional; settings: route oral
Adrenergic receptor beta = Adrenergic receptor beta (Rattus norvegicus, UniProt P18090+P10608+P26255)
Description: Inhibition constant from beta adrenergic receptor binding assay

Rattus norvegicus [4] = experiment: Systolic blood pressure (SBP) in anesthetized spontaneously hypertensive rats (SHR) before administration of 75 mg/kg dose perorally.; format: functional; design: unit: mmHg; settings: route oral
Rattus norvegicus [5] = experiment: Systolic blood pressure (SBP) in anesthetized spontaneously hypertensive rats(SHR) at 7.5 hours after administration of 75 mg/kg dose perorally; NS is not statistically significant.
Rattus norvegicus [6] = experiment: Systolic blood pressure (SBP) in anesthetized spontaneously hypertensive rats(SHR) at 7.5 hours after administration of 75 mg/kg dose perorally; format: functional; settings: route oral
Rattus norvegicus [7] = experiment: Systolic blood pressure (SBP) in anesthetized spontaneously hypertensive rats(SHR) at 7.5 hours after administration of 75 mg/kg dose perorally; NS is not statistically significant
Cavia porcellus [8] = species on record: Cavia porcellus; experiment: Inhibition of the isoproterenol response at a dose of 1 x 10e -4M in guinea pig; slight inhibition was found; format: functional, organism-based
Rattus norvegicus [9] = experiment: Systolic blood pressure (SBP) in anesthetized spontaneously hypertensive rats(SHR) at 7.5 hours after administration of 35 mg/kg dose perorally; NS is not statistically significant
Rattus norvegicus [10] = experiment: Systolic blood pressure (SBP) in anesthetized spontaneously hypertensive rats(SHR) at 7.5 hours after administration of 17 mg/kg dose perorally; format: functional; settings: route oral
Rattus norvegicus [11] = experiment: Systolic blood pressure (SBP) in anesthetized spontaneously hypertensive rats(SHR) before administration of 17 mg/kg dose perorally; format: functional; settings: route oral
Cavia porcellus [12] = species on record: Cavia porcellus; experiment: Inhibition of the isoproterenol response at a dose of 1 x 10e -4M in guinea pig; slight inhibition was found.; format: functional, organism-based
Rattus norvegicus [13] = experiment: Systolic blood pressure (SBP) in anesthetized spontaneously hypertensive rats(SHR) at 7.5 hours after administration of 75 mg/kg dose perorally; value not statistically significant.; format: functional; settings: route oral
Rattus norvegicus [14] = experiment: % decrease in hypothalamus norepinephrine in anesthetized spontaneously hypertensive rats(SHR) at 5 hours after administration of 150 mg/kg dose perorally; format: functional; settings: route oral
Rattus norvegicus [15] = experiment: % decrease in heart norepinephrine in anesthetized spontaneously hypertensive rats(SHR) at 5 hours after administration of 150 mg/kg dose perorally; format: functional; settings: route oral
Rattus norvegicus [16] = experiment: % decrease in hypothalamus DA in anesthetized spontaneously hypertensive rats(SHR) at 5 hours after administration of 150 mg/kg dose perorally; settings: route oral
Rattus norvegicus [17] = experiment: % decrease in heart norepinephrine in anesthetized spontaneously hypertensive rats(SHR) at 5 hours after administration of 75 mg/kg dose perorally; format: functional; settings: route oral
Rattus norvegicus [18] = experiment: % decrease in hypothalamus dopamine in anesthetized spontaneously hypertensive rats(SHR) at 5 hours after administration of 75 mg/kg dose perorally; format: functional; settings: route oral
Rattus norvegicus [19] = experiment: % decrease in hypothalamus dopamine in anesthetized spontaneously hypertensive rats(SHR) at 5 hours after administration of 35 mg/kg dose perorally; format: functional; settings: route oral
Rattus norvegicus [20] = experiment: % decrease in heart 5-HT in anesthetized spontaneously hypertensive rats(SHR) at 5 hours after administration of 150 mg/kg dose perorally; format: functional; settings: route oral
Rattus norvegicus [21] = experiment: % decrease in heart 5-HT in anesthetized spontaneously hypertensive rats(SHR) at 5 hours after administration of 75 mg/kg dose perorally; *value significantly different was control.; format: functional; settings: route oral
Rattus norvegicus [22] = experiment: % decrease in hypothalamus norepinephrine in anesthetized spontaneously hypertensive rats(SHR) at 5 hours after administration of 75 mg/kg dose perorally; format: functional; settings: route oral
Rattus norvegicus [23] = experiment: % decrease in hypothalamus norepinephrine in anesthetized spontaneously hypertensive rats(SHR) at 5 hours after administration of 35 mg/kg dose perorally; format: functional; settings: route oral
Rattus norvegicus [24] = experiment: % decrease in systolic blood pressure (SBP) in anesthetized spontaneously hypertensive rats(SHR) after administration of 150 mg/kg dose perorally; settings: route oral
Rattus norvegicus [25] = experiment: % decrease in heart 5-HT in anesthetized spontaneously hypertensive rats(SHR) at 5 hours after administration of 35 mg/kg dose perorally; format: functional; settings: route oral
Rattus norvegicus [26] = experiment: % decrease in heart norepinephrine in anesthetized spontaneously hypertensive rats(SHR) at 5 hours after administration of 35 mg/kg dose perorally; format: functional; settings: route oral

`CC(C)NCC(O)COc1ccc2c(=O)cc(-c3ccc(Cl)cc3)oc2c1` (centres undefined) was tested, and the Systolic blood pressure (Rattus norvegicus [1]) was 192 and the “Decrease in Systolic blood pressure” value (Rattus norvegicus [2]) was 19%.
Molecule `CC(C)(C)NCC(O)COc1ccc2c(=O)cc(-c3ccccc3)oc2c1` (centres undefined) has a Systolic blood pressure (Rattus norvegicus [3]) of 201 and a Ki (Adrenergic receptor beta) of 18 µM.
`CC(C)NCC(O)COc1ccc2c(=O)cc(-c3ccc([N+](=O)[O-])cc3)oc2c1` (centres undefined) was tested, and the Systolic blood pressure (Rattus norvegicus [4]) was 202 and the “Decrease in Systolic blood pressure” value (Rattus norvegicus [5]) was “Not significant”.
In the case of `Cc1ccc(-c2cc(=O)c3ccc(OCC(O)CNC(C)C)cc3o2)cc1` (centres undefined), the Systolic blood pressure (Rattus norvegicus [4]) is reported as 196 and the “Decrease in Systolic blood pressure” value (Rattus norvegicus [5]) is reported as “Not significant”.
For `CC(C)NCC(O)COc1cc(O)c2c(=O)cc(-c3ccccc3)oc2c1` (centres undefined), the “Decrease in Systolic blood pressure” value (Rattus norvegicus [6]) was 15% and the Systolic blood pressure (Rattus norvegicus [4]) was 195.
In the case of `CC(C)NCC(O)COc1ccc2c(c1)OC(c1ccccc1)CC2=O` (centres undefined), the Systolic blood pressure (Rattus norvegicus [4]) is reported as 198 and the “Decrease in Systolic blood pressure” value (Rattus norvegicus [7]) is reported as “Not significant”.
For `Cc1c(-c2ccccc2)oc2cc(OCC(O)CNC(C)C)ccc2c1=O` (centres undefined), the Systolic blood pressure (Rattus norvegicus [1]) was 206, the “Decrease in Systolic blood pressure” value (Rattus norvegicus [2]) was 10% and the “Decrease in Systolic blood pressure” value (Rattus norvegicus [6]) was 27%. For the same molecule, the Systolic blood pressure (Rattus norvegicus [4]) was 208 and the Activity (Cavia porcellus [8]) was “slight inhibition was found”.
With `COc1ccc(CCNCC(O)COc2ccc3c(=O)cc(-c4ccccc4)oc3c2)cc1OC` (centres undefined) the Systolic blood pressure (Rattus norvegicus [4]) was 204 and the “Decrease in Systolic blood pressure” value (Rattus norvegicus [5]) was “Not significant”.
With `O=c1cc(-c2ccccc2)oc2cc(OCC3CO3)ccc12` (centres undefined) the Systolic blood pressure (Rattus norvegicus [4]) was 120.
`CC(C)NCC(O)COc1cccc2c(=O)cc(-c3ccccc3)oc12` (centres undefined) was tested, and the Ki (Adrenergic receptor beta) was 0.0075 µM and the Systolic blood pressure (Rattus norvegicus [4]) was 209.
For `CNCC(O)COc1ccc2c(=O)cc(-c3ccccc3)oc2c1` (centres undefined), the “Decrease in Systolic blood pressure” value (Rattus norvegicus [9]) was “Not significant” and the Systolic blood pressure (Rattus norvegicus [1]) was 190.
In the case of `CC(C)[N+](C)(C)CC(O)COc1ccc2c(=O)cc(-c3ccccc3)oc2c1.[I-]` (centres undefined), the Systolic blood pressure (Rattus norvegicus [4]) is reported as 200 and the “Decrease in Systolic blood pressure” value (Rattus norvegicus [7]) is reported as “Not significant”.
In the case of `CC(C)NCC(O)COc1ccc2c(=O)c(Cc3ccccc3)c(-c3ccccc3)oc2c1` (centres undefined), the Systolic blood pressure (Rattus norvegicus [4]) is reported as 200 and the “Decrease in Systolic blood pressure” value (Rattus norvegicus [7]) is reported as “Not significant”.
`O=c1cc(-c2ccccc2)oc2cc(OCC(O)CNC3CC3)ccc12` (centres undefined) was tested, and the “Decrease in Systolic blood pressure” value (Rattus norvegicus [10]) was 21%, the Systolic blood pressure (Rattus norvegicus [11]) was 197 and the Systolic blood pressure (Rattus norvegicus [1]) was 198. For the same molecule, the “Decrease in Systolic blood pressure” value (Rattus norvegicus [2]) was 31%, the Ki (Adrenergic receptor beta) was 1.5 µM and the “Decrease in Systolic blood pressure” value (Rattus norvegicus [6]) was 32%. The Activity (Cavia porcellus [12]) was “Weak activity” and the Systolic blood pressure (Rattus norvegicus [4]) was 196.
In the case of `O=c1cc(-c2ccccc2)oc2cc(OCC(O)CNCC(O)COc3ccccc3)ccc12` (centres undefined), the Systolic blood pressure (Rattus norvegicus [4]) is reported as 198 and the “Decrease in Systolic blood pressure” value (Rattus norvegicus [7]) is reported as “Not significant”.
For `O=c1cc(-c2ccccc2)oc2cc(OCC(O)CNCCO)ccc12` (centres undefined), the Systolic blood pressure (Rattus norvegicus [4]) was 189 and the “Decrease in Systolic blood pressure” value (Rattus norvegicus [5]) was “Not significant”.
`COc1ccc(-c2cc(=O)c3ccc(OCC(O)CNC(C)C)cc3o2)cc1` (centres undefined) was tested, and the “Decrease in Systolic blood pressure” value (Rattus norvegicus [13]) was 10% and the Systolic blood pressure (Rattus norvegicus [4]) was 198.
`COc1c(-c2ccccc2)oc2cc(OCC(O)CNC(C)C)ccc2c1=O` (centres undefined) was tested, and the Decrease (Rattus norvegicus [14]) was 28%, the Decrease (Rattus norvegicus [15]) was 70% and the “% decrease hypothalamus DA” value (Rattus norvegicus [16]) was 37%. The Decrease (Rattus norvegicus [17]) was 61%, the Decrease (Rattus norvegicus [18]) was 26% and the Decrease (Rattus norvegicus [19]) was 29%. The Decrease (Rattus norvegicus [20]) was 37%, the Decrease (Rattus norvegicus [21]) was 29% and the Decrease (Rattus norvegicus [22]) was 16%. It also gave a Decrease (Rattus norvegicus [23]) of 12%, a % decrease SBP (Rattus norvegicus [24]) of 16% and a Decrease (Rattus norvegicus [25]) of 7%. For the same molecule, the Decrease (Rattus norvegicus [26]) was 55% and the “Decrease in Systolic blood pressure” value (Rattus norvegicus [7]) was “Not significant”.
`CCNCC(O)COc1ccc2c(=O)cc(-c3ccccc3)oc2c1` (centres undefined) was tested, and the Systolic blood pressure (Rattus norvegicus [1]) was 186, the “Decrease in Systolic blood pressure” value (Rattus norvegicus [2]) was 16% and the Ki (Adrenergic receptor beta) was 7.5 µM.
